From patent publication US8785457B2 (Cellzome Limited, priority 2009, dated 2014)
Read-outs that look alike come from different tables or passages of the source.

Assays:
[1] = biological target: T1, DNA-dependent protein kinase (DNA-PK) (Homo sapiens, UniProt P78527); test: kinobeads assay, DNA-PK; assay type: binding; conditions: kinobeads assay
T1 construct: endogenous in cells; host or cells: Jurkat, clone E6-1 (ATCC TIB-152) cell lysate
Protocol: (§1) The compounds of the present invention as described were tested in the mTOR kinobeads assay as described below. Briefly, test compounds (at various concentrations) and the affinity matrix with the immobilized phenylmorpholin-chromen ligand (8-(4-aminomethyl-phenyl)-2-morpholin-4-yl-chromen-4-one) were added to cell lysate aliquots and allowed to bind to the proteins in the lysate sample. After the incubation time the beads with captured proteins were separated from the lysate. Bound proteins were then eluted and the presence of mTOR, PI3K delta (PI3 Kd) and DNA-dependent protein kinase (DNA-PK) was detected and quantified using a specific antibody in a dot blot procedure and the Odyssey infrared detection system. Kinobeads assays for PI3K (WO-A 2008/015013) and for kinase selectivity profiling (WO 2006/134056) have been previously described.
(§2) The kinobeads assay was performed as a competitive binding assay in which test compounds were added directly into a cell lysate. Test compounds (at various concentrations) and the affinity matrix (beads with immobilized phenylmorpholin-chromen ligand) were added to cell lysate aliquots and allowed to bind to the proteins contained in the lysate sample. After the incubation time the beads with captured proteins were separated from the lysate. Bound proteins were then eluted and the presence of kinases was detected and quantified using a multiplexed immunodetection format. Dose response curves for individual kinases were generated and IC50 values calculated.
(§3) The affinity matrix (beads with immobilized phenylmorpholin-chromen ligand) was washed two times with 15 ml of 1×DP buffer containing 0.2% NP40 (IGEPAL® CA-630, Sigma, #13021) and then resupended in 5.5 ml of 1×DP buffer containing 0.2% NP40 (10% beads slurry).
(§4) 5×DP buffer: 250 mM Tris-HCl pH 7.4, 25% Glycerol, 7.5 mM MgCl2, 750 mM NaCl, 5 mM Na3VO4, filter the 5×-lysis buffer through 0.22 μm filter and store in aliquots at −80° C. The 5×DP buffer is diluted to 1×DP buffer containing 1 mM DTT and 25 mM NaF.
(§5) Stock solutions of test compounds were prepared in DMSO. In a 96 well plate 30 μl solution of diluted test compounds at 5 mM in DMSO were prepared. Starting with this solution a 1:3 dilution series (9 steps) was prepared. For control experiments (no test compound) a buffer containing 2% DMSO was used. Compound CZC00018052 served as a positive control (PI-103; Calbiochem catalogue number 528100).
(§6) Jurkat cells (ATCC catalogue number TIB-152 Jurkat, clone E6-1) were grown in 1 liter Spinner flasks (Integra Biosciences, #182101) in suspension in RPMI 1640 medium (Invitrogen, #21875-034) supplemented with 10% Fetal Bovine Serum (Invitrogen) at a density between 0.15×10^6 and 1.2×10^6 cells/ml. Cells were harvested by centrifugation, washed once with 1×PBS buffer (Invitrogen, #14190-094) and cell pellets were frozen in liquid nitrogen and subsequently stored at −80° C.
(§7) Jurkat cells were homogenized in a Potter S homogenizer in lysis buffer: 50 mM Tris-HCl, 0.8% NP40, 5% glycerol, 150 mM NaCl, 1.5 mM MgCl2, 25 mM NaF, 1 mM sodium vanadate, 1 mM DTT, pH 7.5. One complete EDTA-free tablet (protease inhibitor cocktail, Roche Diagnostics, 1873580) per 25 ml buffer was added. The material was dounced 10 times using a mechanized POTTER S, transferred to 50 ml falcon tubes, incubated for 30 minutes on ice and spun down for 10 min at 20,000 g at 4° C. (10,000 rpm in Sorvall SLA600, precooled). The supernatant was transferred to an ultracentrifuge (UZ)-polycarbonate tube (Beckmann, 355654) and spun for 1 hour at 100.000 g at 4° C. (33.500 rpm in Ti50.2, precooled). The supernatant was transferred again to a fresh 50 ml falcon tube, the protein concentration was determined by a Bradford assay (BioRad) and samples containing 50 mg of protein per aliquot were prepared. The samples were immediately used for experiments or frozen in liquid nitrogen and stored frozen at −80° C. […]

PI3 Kgamma (PI3 Kg) = biological target: T2, PI3 Kgamma (PI3 Kg) (Homo sapiens, UniProt P48736); test: kinobeads assay, PI3Kgamma; assay type: binding; conditions: kinobeads assay, Table 6; read-out: Inhibition values (IC50) PI3Kg
T2 construct: endogenous in cells; host or cells: cell lysate
Protocol: as §2
(§8) The effect of the compounds on the kinases PI3Kalpha (PI3Ka), PI3 Kbeta (PI3 Kb) and PI3 Kgamma (PI3 Kg) were tested in the kinobeads assay as described (WO-A 2009/098021).

mTOR = biological target: T3, mTOR (Homo sapiens, UniProt P42345); test: mTOR kinobeads assay (competitive binding in Jurkat cell lysate, immunodetection); conditions: kinobeads assay
T3 construct: endogenous in cells; host or cells: Jurkat, clone E6-1 (ATCC TIB-152) cell lysate
Protocol: The compounds of the present invention as described were tested in the mTOR kinobeads assay as described below. […] After the incubation time the beads with captured proteins were separated from the lysate. Bound proteins were then eluted and the presence of mTOR, PI3K delta (PI3 Kd) and DNA-dependent protein kinase (DNA-PK) was detected and quantified using a specific antibody in a dot blot procedure and the Odyssey infrared detection system.
as §2, §4
as §5, with “used.” for “used. Compound CZC00018052 served as a positive control (PI-103; Calbiochem catalogue number 528100).”
Jurkat cells were homogenized in a Potter S homogenizer in lysis buffer: 50 mM Tris-HCl, 0.8% NP40, 5% glycerol, 150 mM NaCl, 1.5 mM MgCl2, 25 mM NaF, 1 mM sodium vanadate, 1 mM DTT, pH 7.5. […] The material was dounced 10 times using a mechanized POTTER S, transferred to 50 ml falcon tubes, incubated for 30 minutes on ice and spun down for 10 min at 20,000 g at 4° C. (10,000 rpm in Sorvall SLA600, precooled). […] (33.500 rpm in Ti50.2, precooled). The supernatant was transferred again to a fresh 50 ml falcon tube, the protein concentration was determined by a Bradford assay (BioRad) and samples containing 50 mg of protein per aliquot were prepared. The samples were immediately used for experiments or frozen in liquid nitrogen and stored frozen at −80° C.
Jurkat cell lysate (approximately 50 mg protein per plate) was thawed in a water bath at room temperature and then kept on ice. […] The diluted cell lysate was stored on ice.
Plates were sealed and incubated for two hours in a cold room on a Thermoxer with shaking (750 rpm). Afterwards the plate was washed twice with 230 μl washing buffer (1×DP 0.4% NP40). […] The eluate was frozen quickly at −80° C. and stored at −20° C.
The kinases in the eluates were detected and quantified by spotting on Nitrocellulose membranes and using a first antibody directed against the kinase of interest and a fluorescently labeled secondary antibody (anti-mouse or anti-rabbit IRDye™ antibodies from Rockland).
Afterwards the membrane was washed three times for 10 minutes with PBS buffer containing 0.1% Tween 20 at room temperature. […] Afterwards the membrane was washed three times for 10 minutes each with 1×PBS buffer containing 0.1% Tween 20 at room temperature. Then the membrane was rinsed once with PBS buffer to remove residual Tween 20. The membrane was kept in PBS buffer at 4° C. and then scanned with the Odyssey instrument. Fluorescence signals were recorded and analysed according to the instructions of the manufacturer.

PI3K delta (PI3 Kd) = biological target: T4, PI3K delta (PI3 Kd) (Homo sapiens, UniProt O00329); test: kinobeads assay, PI3K delta; assay type: binding; conditions: kinobeads assay, read-out: Inhibition values (IC50) PI3Kd
T4 construct: endogenous in cells; host or cells: Jurkat, clone E6-1 (ATCC TIB-152) cell lysate
Protocol: as §1, §2, §3, §4, §5, §6, §7

PI3 Kbeta (PI3 Kb) = biological target: T5, PI3 Kbeta (PI3 Kb) (Homo sapiens, UniProt P42338); test: kinobeads assay, PI3Kbeta; assay type: binding; conditions: kinobeads assay, Table 6; read-out: Inhibition values (IC50) PI3Kb
T5 construct: endogenous in cells; host or cells: cell lysate
Protocol: as §2, §8

PI3Kalpha (PI3Ka) = biological target: T6, PI3Kalpha (PI3Ka) (Homo sapiens, UniProt P42336); test: kinobeads assay, PI3Kalpha; assay type: binding; conditions: kinobeads assay, Table 6; for IC50: read-out: Inhibition values (IC50) PI3Ka
T6 construct: endogenous in cells; host or cells: cell lysate
Protocol: as §2, §8

[2] = Table 6, read-out: Inhibition values (IC50) DNAPK
[3] = Table 6, read-out: Inhibition values (IC50) mTOR

T1 sequence (P78527 whole entry): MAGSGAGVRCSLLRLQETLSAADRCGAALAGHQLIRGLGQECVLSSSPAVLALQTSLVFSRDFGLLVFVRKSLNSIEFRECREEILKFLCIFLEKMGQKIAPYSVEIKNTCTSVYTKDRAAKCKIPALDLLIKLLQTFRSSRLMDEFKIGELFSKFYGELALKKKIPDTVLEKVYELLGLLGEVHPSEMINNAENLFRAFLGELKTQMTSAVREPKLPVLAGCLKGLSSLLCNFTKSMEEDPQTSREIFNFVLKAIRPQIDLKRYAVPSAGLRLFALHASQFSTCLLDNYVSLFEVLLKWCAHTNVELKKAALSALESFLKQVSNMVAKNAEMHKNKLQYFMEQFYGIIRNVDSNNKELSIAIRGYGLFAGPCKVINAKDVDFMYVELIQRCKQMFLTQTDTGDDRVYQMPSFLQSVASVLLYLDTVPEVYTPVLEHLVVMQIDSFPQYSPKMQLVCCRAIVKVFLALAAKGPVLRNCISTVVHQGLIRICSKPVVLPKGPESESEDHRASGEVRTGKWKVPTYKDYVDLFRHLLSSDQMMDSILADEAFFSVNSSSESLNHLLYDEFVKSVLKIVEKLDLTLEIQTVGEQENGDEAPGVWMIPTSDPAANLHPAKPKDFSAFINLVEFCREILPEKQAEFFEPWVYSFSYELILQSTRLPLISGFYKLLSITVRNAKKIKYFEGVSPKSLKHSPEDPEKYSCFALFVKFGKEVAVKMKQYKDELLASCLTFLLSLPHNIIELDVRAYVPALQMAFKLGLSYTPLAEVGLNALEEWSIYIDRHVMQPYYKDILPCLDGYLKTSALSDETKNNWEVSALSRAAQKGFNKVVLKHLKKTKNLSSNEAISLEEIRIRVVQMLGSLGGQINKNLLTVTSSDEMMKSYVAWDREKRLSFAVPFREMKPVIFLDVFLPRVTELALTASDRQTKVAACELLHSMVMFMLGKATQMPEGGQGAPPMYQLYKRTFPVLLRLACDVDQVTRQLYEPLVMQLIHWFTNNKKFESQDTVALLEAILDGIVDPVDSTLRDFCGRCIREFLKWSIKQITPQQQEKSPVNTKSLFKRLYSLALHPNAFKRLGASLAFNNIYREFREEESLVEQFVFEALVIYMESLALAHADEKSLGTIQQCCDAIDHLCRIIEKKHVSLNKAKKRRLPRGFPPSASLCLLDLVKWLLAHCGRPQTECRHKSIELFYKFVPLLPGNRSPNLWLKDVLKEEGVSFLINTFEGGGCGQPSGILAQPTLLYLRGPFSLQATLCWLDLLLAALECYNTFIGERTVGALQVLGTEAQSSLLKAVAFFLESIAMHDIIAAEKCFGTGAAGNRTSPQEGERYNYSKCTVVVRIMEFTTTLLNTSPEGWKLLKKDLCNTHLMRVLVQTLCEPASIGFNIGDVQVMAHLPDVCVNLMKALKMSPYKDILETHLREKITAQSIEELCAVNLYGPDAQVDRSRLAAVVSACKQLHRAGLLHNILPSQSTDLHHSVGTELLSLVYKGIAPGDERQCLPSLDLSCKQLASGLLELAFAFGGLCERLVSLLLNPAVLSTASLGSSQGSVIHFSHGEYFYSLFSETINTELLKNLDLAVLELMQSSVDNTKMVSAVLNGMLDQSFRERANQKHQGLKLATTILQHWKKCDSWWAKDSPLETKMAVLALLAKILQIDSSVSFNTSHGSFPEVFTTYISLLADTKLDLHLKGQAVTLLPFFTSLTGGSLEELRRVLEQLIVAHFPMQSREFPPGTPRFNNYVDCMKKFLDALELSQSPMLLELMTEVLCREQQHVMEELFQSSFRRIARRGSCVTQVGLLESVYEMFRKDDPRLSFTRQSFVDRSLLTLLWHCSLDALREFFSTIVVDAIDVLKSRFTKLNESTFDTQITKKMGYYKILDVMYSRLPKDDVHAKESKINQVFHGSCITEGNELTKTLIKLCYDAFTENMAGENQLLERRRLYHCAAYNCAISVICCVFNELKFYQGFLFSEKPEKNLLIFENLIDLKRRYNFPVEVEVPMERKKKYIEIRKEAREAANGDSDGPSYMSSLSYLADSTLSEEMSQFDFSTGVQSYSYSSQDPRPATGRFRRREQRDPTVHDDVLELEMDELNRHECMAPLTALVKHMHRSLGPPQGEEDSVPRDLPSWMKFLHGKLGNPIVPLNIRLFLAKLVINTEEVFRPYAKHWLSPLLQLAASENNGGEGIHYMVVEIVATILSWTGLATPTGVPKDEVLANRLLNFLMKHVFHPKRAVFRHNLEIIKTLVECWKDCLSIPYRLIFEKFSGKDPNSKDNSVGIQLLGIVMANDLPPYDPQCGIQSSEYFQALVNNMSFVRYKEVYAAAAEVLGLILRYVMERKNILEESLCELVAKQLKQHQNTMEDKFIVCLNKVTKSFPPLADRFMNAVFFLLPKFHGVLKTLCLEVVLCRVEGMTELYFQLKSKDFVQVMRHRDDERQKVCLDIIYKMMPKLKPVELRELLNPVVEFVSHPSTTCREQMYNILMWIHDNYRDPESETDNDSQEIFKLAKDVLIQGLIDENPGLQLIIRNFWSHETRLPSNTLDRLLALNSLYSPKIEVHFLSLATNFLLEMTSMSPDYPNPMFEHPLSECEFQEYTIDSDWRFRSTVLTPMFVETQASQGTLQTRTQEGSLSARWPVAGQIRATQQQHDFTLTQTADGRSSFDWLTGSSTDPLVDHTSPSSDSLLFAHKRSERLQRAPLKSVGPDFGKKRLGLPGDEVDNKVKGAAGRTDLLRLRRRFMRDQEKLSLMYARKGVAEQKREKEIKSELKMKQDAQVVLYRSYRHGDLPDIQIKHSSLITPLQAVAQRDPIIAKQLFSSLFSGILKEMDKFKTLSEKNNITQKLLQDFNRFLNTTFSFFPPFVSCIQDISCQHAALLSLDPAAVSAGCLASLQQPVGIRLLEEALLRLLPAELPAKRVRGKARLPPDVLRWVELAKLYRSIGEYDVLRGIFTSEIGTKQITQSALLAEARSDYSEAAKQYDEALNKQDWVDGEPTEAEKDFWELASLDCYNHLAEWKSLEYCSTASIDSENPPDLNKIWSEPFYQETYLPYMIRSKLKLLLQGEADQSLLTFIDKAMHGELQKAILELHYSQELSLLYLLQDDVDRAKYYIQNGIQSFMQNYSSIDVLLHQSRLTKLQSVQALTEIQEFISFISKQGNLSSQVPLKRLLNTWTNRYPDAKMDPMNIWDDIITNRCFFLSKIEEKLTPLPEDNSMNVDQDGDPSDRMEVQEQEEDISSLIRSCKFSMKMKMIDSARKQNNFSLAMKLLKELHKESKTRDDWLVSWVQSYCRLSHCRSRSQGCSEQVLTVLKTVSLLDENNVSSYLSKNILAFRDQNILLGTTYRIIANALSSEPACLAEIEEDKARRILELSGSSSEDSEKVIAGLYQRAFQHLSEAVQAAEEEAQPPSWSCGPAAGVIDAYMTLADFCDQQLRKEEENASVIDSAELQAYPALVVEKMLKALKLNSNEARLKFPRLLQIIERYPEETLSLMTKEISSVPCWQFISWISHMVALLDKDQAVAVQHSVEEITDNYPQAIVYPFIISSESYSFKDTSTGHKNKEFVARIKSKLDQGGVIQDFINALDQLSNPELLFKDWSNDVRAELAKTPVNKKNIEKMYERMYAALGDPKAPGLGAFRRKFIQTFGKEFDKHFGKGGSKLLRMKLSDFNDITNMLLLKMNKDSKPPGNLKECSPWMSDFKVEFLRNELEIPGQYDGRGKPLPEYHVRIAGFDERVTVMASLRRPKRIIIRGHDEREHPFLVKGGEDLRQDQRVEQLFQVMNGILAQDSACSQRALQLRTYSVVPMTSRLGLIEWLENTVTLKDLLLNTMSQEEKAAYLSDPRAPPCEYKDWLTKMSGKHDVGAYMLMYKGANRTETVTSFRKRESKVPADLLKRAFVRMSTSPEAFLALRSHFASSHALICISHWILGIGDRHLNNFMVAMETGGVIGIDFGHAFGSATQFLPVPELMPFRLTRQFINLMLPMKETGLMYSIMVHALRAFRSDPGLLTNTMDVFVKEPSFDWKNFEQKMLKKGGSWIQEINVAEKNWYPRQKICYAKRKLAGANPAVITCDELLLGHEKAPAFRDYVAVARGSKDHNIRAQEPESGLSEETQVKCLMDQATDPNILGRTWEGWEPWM

Row | Structure (SMILES) | IC50 ([1]; Table 4, read-out: Inhibition values (IC50) DNA-PK) [µM] | IC50 [1, 2] [µM] | IC50 (PI3 Kgamma (PI3 Kg)) [µM] | IC50 (mTOR; Table 4, read-out: Inhibition values (IC50) mTor) [µM] | IC50 (mTOR; [3]) [µM] | IC50 (PI3K delta (PI3 Kd); Table 4) [µM] | IC50 (PI3K delta (PI3 Kd); Table 6) [µM] | IC50 (PI3 Kbeta (PI3 Kb)) [µM] | Inhibition values (IC50) PI3Ka (PI3Kalpha (PI3Ka)) | IC50 (PI3Kalpha (PI3Ka)) [µM]
1 | C[C@H]1COCCN1c1nc(-c2ccc(NC(N)=O)cc2)nc2c1CNC2 [Example 5, (S)-1-(4-(4-(3-methylmorpholino)-6,7-dihydro-5H-pyrrolo[3,4-d]pyrimidin-2-yl)phenyl)urea] | > 10 | > 10 | 0.1 to 1 | < 0.1 | < 0.1 | 1 to 10 | 1 to 10 | 1 to 10 | B (B >0.1 μM < 1 μM) | –
2 | CCNC(=O)Nc1ccc(-c2nc3c(c(N4CCOC[C@@H]4C)n2)CN(C(=O)CCN(C)C)CC3)cc1 [Example 92, (S)-1-(4-(6-(3-(dimethylamino)propanoyl)-4-(3-methylmorpholino)-5,6,7,8-tetrahydropyrido[4,3-d]pyrimidin-2-yl)phenyl)-3-ethylurea] | – | > 10 | > 10 | – | 0.1 to 1 | – | > 10 | > 10 | D (D >10 μM) | –
3 | CCOC(=O)N1Cc2nc(-c3ccc(NC(=O)Nc4cccc(O)c4)cc3)nc(N3CCOC[C@@H]3C)c2C1 [Example 111, (S)-ethyl 2-(4-(3-(3-hydroxyphenyl)ureido)phenyl)-4-(3-methylmorpholino)-5H-pyrrolo[3,4-d]pyrimidine-6(7H)-carboxylate] | – | > 10 | > 10 | – | 0.1 to 1 | – | > 10 | > 10 | D (D >10 μM) | –
4 | CCOC(=O)N1Cc2nc(-c3ccc(NC(=O)NCCN)cc3)nc(N3CCOC[C@@H]3C)c2C1 [Example 112, (S)-ethyl 2-(4-(3-(2-aminoethyl)ureido)phenyl)-4-(3-methylmorpholino)-5H-pyrrolo[3,4-d]pyrimidine-6(7H)-carboxylate] | – | > 10 | 1 to 10 | – | < 0.1 | – | 0.1 to 1 | 1 to 10 | B (B >0.1 μM < 1 μM) | –
5 | CCOC(=O)N1Cc2nc(-c3ccc(NC(=O)NCC(N)=O)cc3)nc(N3CCOC[C@@H]3C)c2C1 [Example 114, (S)-ethyl 2-(4-(3-(2-amino-2-oxoethyl)ureido)phenyl)-4-(3-methylmorpholino)-5H-pyrrolo[3,4-d]pyrimidine-6(7H)-carboxylate] | – | > 10 | 1 to 10 | – | 0.1 to 1 | – | 0.1 to 1 | 1 to 10 | B (B >0.1 μM < 1 μM) | –
6 | C[C@H]1COCCN1c1nc(-c2ccc(NC(=O)NC3CC3)cc2)nc2c1CN(CC1CCN(C(=O)OC(C)(C)C)CC1)C2 [Example 128, (S)-tert-butyl 4-((2-(4-(3-cyclopropylureido)phenyl)-4-(3-methylmorpholino)-5H-pyrrolo[3,4-d]pyrimidin-6(7H)-yl)methyl)piperidine-1-carboxylate] | – | – | > 10 | – | 0.1 to 1 | – | > 10 | – | D (D >10 μM) | –

More lines, now with the values ahead:

Row | IC50 ([1]; Table 4, read-out: Inhibition values (IC50) DNA-PK) [µM] | IC50 [1, 2] [µM] | IC50 (PI3 Kgamma (PI3 Kg)) [µM] | IC50 (mTOR; Table 4, read-out: Inhibition values (IC50) mTor) [µM] | IC50 (mTOR; [3]) [µM] | IC50 (PI3K delta (PI3 Kd); Table 4) [µM] | IC50 (PI3K delta (PI3 Kd); Table 6) [µM] | IC50 (PI3 Kbeta (PI3 Kb)) [µM] | Inhibition values (IC50) PI3Ka (PI3Kalpha (PI3Ka)) | IC50 (PI3Kalpha (PI3Ka)) [µM] | Structure (SMILES)
7 | – | > 10 | > 10 | – | < 0.1 | – | 1 to 10 | 1 to 10 | – | 1 to 10 | CCNC(=O)Nc1ccc(-c2nc3c(c(N4CCOCC4)n2)CN(C(C)=O)C3)cc1 [Example 99, 1-(4-(6-acetyl-4-morpholino-6,7-dihydro-5H-pyrrolo[3,4-d]pyrimidin-2-yl)phenyl)-3-ethylurea]
8 | – | > 10 | > 10 | – | 0.1 to 1 | – | > 10 | > 10 | D (D >10 μM) | – | CCNC(=O)Nc1ccc(-c2nc3c(c(N4CCOC[C@@H]4C)n2)CCN(C)C3)c(C)c1 [Example 109, (S)-1-ethyl-3-(3-methyl-4-(7-methyl-4-(3-methylmorpholino)-5,6,7,8-tetrahydropyrido[3,4-d]pyrimidin-2-yl)phenyl)urea]
9 | – | > 10 | > 10 | – | 0.1 to 1 | – | > 10 | > 10 | D (D >10 μM) | – | CCOC(=O)N1Cc2nc(-c3ccc(NC(=O)NCC(=O)O)cc3)nc(N3CCOC[C@@H]3C)c2C1 [Example 115, (S)-2-(3-(4-(6-(ethoxycarbonyl)-4-(3-methylmorpholino)-6,7-dihydro-5H-pyrrolo[3,4-d]pyrimidin-2-yl)phenyl)ureido)acetic acid]
10 | – | > 10 | > 10 | – | 0.1 to 1 | – | > 10 | > 10 | – | 1 to 10 | CCNC(=O)Nc1cnc(-c2nc3c(c(N4CCOC[C@@H]4C)n2)CN(C(=O)OCC)C3)cn1 [Example 116, (S)-ethyl-2-(5-(3-ethylureido)pyrazin-2-yl)-4-(3-methylmorpholino)-5H-pyrrolo[3,4-d]pyrimidine-6(7H)-carboxylate]
